Data set [1] deals with T1, Dual specificity protein kinase CLK1 (Homo sapiens, UniProt P49759). The following applies: dose 100.0 nM, time 15.0 min.
Target sequence in this assay (P49759 whole entry, looked up): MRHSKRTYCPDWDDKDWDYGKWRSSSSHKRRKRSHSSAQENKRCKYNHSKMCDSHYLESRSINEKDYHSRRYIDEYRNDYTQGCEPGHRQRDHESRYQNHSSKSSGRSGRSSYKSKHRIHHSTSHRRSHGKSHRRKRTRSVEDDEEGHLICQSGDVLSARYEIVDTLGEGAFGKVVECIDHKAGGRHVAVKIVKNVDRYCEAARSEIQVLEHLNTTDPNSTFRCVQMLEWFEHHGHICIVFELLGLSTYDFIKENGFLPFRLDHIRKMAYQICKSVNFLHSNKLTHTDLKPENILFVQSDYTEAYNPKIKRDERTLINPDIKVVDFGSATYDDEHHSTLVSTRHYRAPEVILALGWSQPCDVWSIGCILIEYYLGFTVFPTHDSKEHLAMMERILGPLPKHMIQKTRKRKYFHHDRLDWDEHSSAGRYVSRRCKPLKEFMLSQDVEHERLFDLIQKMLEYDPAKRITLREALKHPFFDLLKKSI
In data set [2] the target is T1, Dual specificity protein kinase CLK1. The data set can be described thus: Inhibition of human CLK1 using GRSRSRSRSRSRSRS as substrate incubated for 15 mins in presence of ATP by gamma32P-ATP based analysis.
Target sequence in this assay (P49759 whole entry): as the sequence (P49759 whole entry, looked up) above
Data set [3] can be described thus: Cytotoxicity against HDF cells assessed as cell growth inhibition at 15 uM incubated for 2 days by WST-1 analysis relative to control. The settings on record: human, HDF cells (NHDF, normal human dermal fibroblasts), time 2 day, read-out: GI. Type of data set: toxicity, cell-based. (Tetrazolium dyes change colour on reduction, which living cells bring about.)
In data set [4] the test system is T-24. Nature of the data set: Antiproliferative activity against human T24 cells assessed as cell growth inhibition incubated for 3 days by MTT assay. Type of data set: functional. The settings on record: T-24, 72 h, time 3 day.
Data set [5] can be described thus: Metabolic stability in pooled human liver S9 fraction assessed as half life at 0.3 uM incubated for 120 mins in presence of NADPH regenerating system by LC-MS/MS analysis. Type of data set: ADME, subcellular.
Data set [6] has as its system T-24. The data set can be described thus: Antiproliferative activity against human T24 cells assessed as cell growth inhibition. Type of data set: functional.
Data set [7] can be described thus: Metabolic stability in human liver microsomes assessed as half life. Type of data set: ADME, Microsome. (In general: Liver microsomes are vesicles of endoplasmic reticulum, rich in cytochrome P450 enzymes.)
Data set [8] in a line: Selectivity index, ratio of inhibition of DYRK1A (unknown origin) to inhibition of CLK1 (unknown origin).
The nature of data set [9]: Selectivity index, ratio of IC50 for inhibition of CLK2 (unknown origin) to IC50 for inhibition of CLK1 (unknown origin).
A further data set relates to NHDF. The data set can be described thus: Cytotoxicity against HDF cells assessed as inhibition of cell growth at 15 uM incubated for 2 days by WST-1 analysis. The settings on record: human, 48 h, time 2 day. Type of data set: toxicity, cell-based.
Data set [10] concerns the target Dual specificity protein kinase CLK4 (Homo sapiens, UniProt Q9HAZ1). Nature of the data set: Inhibition of CLK4 (unknown origin) in presence of ATP.
The target of data set [11] is Dual specificity tyrosine-phosphorylation-regulated kinase 1A (Homo sapiens, UniProt Q13627). The data set can be described thus: Inhibition of DYRK1A (unknown origin) in presence of ATP.

The IC50 is the concentration that inhibits the measured activity by half. What is called GI50 is the concentration giving 50% growth inhibition. The half-life is the time needed for the level to fall by half in the phase considered.

A value given as a limit tells only on which side of the number the result lay.

Dual specificity protein kinase CLK4, sequence (Q9HAZ1 whole entry): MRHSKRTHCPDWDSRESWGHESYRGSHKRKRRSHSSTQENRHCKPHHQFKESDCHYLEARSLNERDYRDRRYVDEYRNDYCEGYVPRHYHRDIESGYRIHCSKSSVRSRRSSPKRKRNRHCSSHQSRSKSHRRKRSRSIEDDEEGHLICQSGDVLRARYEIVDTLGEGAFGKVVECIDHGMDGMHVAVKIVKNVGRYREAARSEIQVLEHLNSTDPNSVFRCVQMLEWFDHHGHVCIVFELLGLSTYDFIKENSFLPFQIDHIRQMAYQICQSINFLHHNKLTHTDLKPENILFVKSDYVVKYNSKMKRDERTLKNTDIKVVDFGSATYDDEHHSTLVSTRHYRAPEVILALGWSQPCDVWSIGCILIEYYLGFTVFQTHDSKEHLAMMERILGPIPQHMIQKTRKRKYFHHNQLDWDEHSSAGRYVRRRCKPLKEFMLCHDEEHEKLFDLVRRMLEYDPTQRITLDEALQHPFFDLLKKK

In data set [1], `COc1ccc2sc(C(=O)N(C)N(C)c3cccc(N)c3)cc2c1` came in with an inhibition of 51.2%. Besides, the IC50 in [2] was determined as 97.4 nM. On to `COc1ccc2sc(C(=O)NNc3ncccc3Cl)cc2c1`, for which the inhibition in data set [1] came to 0%. `COc1ccc2sc(C(=O)NNc3ccc(Br)cc3)cc2c1`: the inhibition in data set [1] was 21.3%. In the case of `COc1ccc2sc(C(=O)N(C)N(C)c3cc(F)cc(F)c3)cc2c1`, in data set [1], the inhibition came to 85%. For the same compound, in data set [3], the inhibition at 48 h, 15 µM was found to be 20.8%. Moreover, the GI50 in the data set with T-24 [4] was more than 15000 nM. Also, the IC50 in data set [2] is 24.5 nM. `COc1ccc2sc(C(=O)N(C)Cc3cc(F)cc(F)c3)cc2c1`: the half-life at 0.3 µM in data set [5] came to 9.9 min. The GI50 was determined as 430 nM with T-24 [6] and 1780 nM with T-24 [4]. The half-life in data set [7] was found to be 10 min. For the same compound, the inhibition at 48 h, 15 µM in data set [3] is 9.16%. `COc1ccc2sc(C(=O)NNc3cccc(Br)c3)cc2c1` registered an inhibition in data set [1] of 84.6%. The IC50 in [2] is 37.7 nM.

On to `Cn1cc(-c2ccc3occ(-c4cccc(-c5ccncc5)c4)c3n2)cn1`, for which, in [8], the Selectivity Index was found to be 26.6. Besides, the Ratio IC50 in data set [9] turned out to be 2.5.

For the compound `COc1ccc2sc(C(=O)NNc3ccc(F)cc3)cc2c1`, the inhibition in [1] was 5%. `COc1ccc2sc(C(=O)NNc3ccccn3)cc2c1` displayed an inhibition in [1] of 28.9%.

With `COc1ccc2sc(C(=O)NNc3ccccc3Br)cc2c1`, the inhibition in data set [1] was 6.2%. In turn, `COc1ccc2sc(C(=O)N(C)N(C)c3cc(Cl)cc(Cl)c3)cc2c1` gave an inhibition in [1] of 66.3%. Also, in [2], the IC50 is 63.5 nM. Regarding `COc1ccc2sc(C(=O)N(C)Cc3cccc(F)c3)cc2c1`, the Selectivity Index in [8] is 48.6. Further, the half-life at 0.3 µM in data set [5] was 17.2 min. Besides, the half-life in data set [7] worked out at 10 min. Consider `COc1ccc2sc(C(=O)NNc3cccc(F)c3)cc2c1`, for which the inhibition in data set [1] was found to be 70.5%. In [2], the IC50 turned out to be 66.5 nM.

On to `COc1ccc2sc(C(=O)NNc3ccc(C)cc3C)cc2c1`, for which, in data set [1], the inhibition came out at 0%. Same read-out and setting: then `COc1ccc2sc(C(=O)NNc3cccc(N)c3)cc2c1`, with 49%. Take `COc1ccc2sc(C(=O)N(C)N(C)c3cccc(Br)n3)cc2c1`: in data set [1], the inhibition was found to be 77.2%. In addition, the IC50 in data set [2] stood at 12.9 nM. Taken in the same sequence, the figures for `COc1ccc2sc(C(=O)N(C)N(C)c3cccc(Br)c3)cc2c1` were 68.1% and 73.8 nM. For the compound `COc1ccc2sc(C(=O)NNc3ccc(F)c(Cl)c3)cc2c1`, the inhibition in data set [1] stood at 27.9%. In data set [1], `COc1ccc2sc(C(=O)NNc3ccc(C#N)cc3)cc2c1` showed an inhibition of 18.4%. Moreover, in the data set on NHDF, the Activity result is listed as “Non-Toxic”. Further, the GI50 with T-24 [4] was more than 15000 nM. In addition, in [2], the IC50 is more than 100 nM. In [1], `COc1ccc2sc(C(=O)NNc3ccc(F)c(F)c3)cc2c1` displayed an inhibition of 17.7%. Compound `COc1ccc2sc(C(=O)NNc3nc(OC)ncc3F)cc2c1` showed an inhibition in data set [1] of 0%. Take `COc1ccc2sc(C(=O)NNc3cc(C(F)(F)F)cc(C(F)(F)F)c3)cc2c1`: the inhibition in data set [1] turned out to be 22.3%. As for `COc1ccc2sc(C(=O)NNc3cccc(Br)n3)cc2c1`, in the data set with T-24 [4], the GI50 came to 11400 nM. Take `C[C@@H](c1ccc(F)cc1)n1nnc2cnc3ccc(-c4ccc5ocnc5c4)cc3c21`: in data set [8], the Selectivity Index was found to be 69. Consider `COc1ccc2sc(C(=O)NNc3c(Cl)cccc3Cl)cc2c1`, for which, in data set [1], the inhibition came out at 0%. In [1], `COc1ccc2sc(C(=O)N(C)N(C)c3cccc([N+](=O)[O-])c3)cc2c1` gave an inhibition of 47.8%. In the case of `COc1ccc2sc(C(=O)NNc3ccc(Cl)cc3)cc2c1`, the inhibition in data set [1] is 12.8%. For the compound `COc1ccc2sc(C(=O)NNc3ccc(C(F)(F)F)cc3)cc2c1`, the inhibition in data set [1] came to 0%. The compound `COc1ccc2sc(C(=O)NNc3ccc(C(C)C)cc3)cc2c1` yielded an inhibition in [1] of 3.8%.

The compound `COc1ccc2sc(C(=O)NNc3cccc(C#N)c3)cc2c1` showed an inhibition in [1] of 73.1%. The Activity entry with NHDF is “Non-Toxic”. In the data set on T-24 [4], the GI50 worked out at 10000 nM. Further, in [2], the IC50 is 5.4 nM. Take `CNc1ncc2cc3cnccc3c([N+](=O)[O-])c2n1`: the Selectivity Index in data set [8] was determined as 34. `COc1ccc2sc(C(=O)NNc3ccc(I)cc3)cc2c1` gave an inhibition in [1] of 16.9%. Regarding `COc1ccc2sc(C(=O)NNc3cccc(C(F)(F)F)c3)cc2c1`, the inhibition in data set [1] stood at 63%. Besides, the IC50 in data set [2] stood at 73 nM. Turning to `CC(C)(C)c1ccc(C(=O)Nc2cn3cc(-c4cn[nH]c4)ccc3n2)cn1`, the Ratio IC50 in [9] turned out to be 2.2. In data set [1], `COc1ccc2sc(C(=O)NNc3ccc(F)cc3F)cc2c1` showed an inhibition of 4.1%.

Take `COc1cccc(NNC(=O)c2cc3cc(OC)ccc3s2)c1`: the inhibition in data set [1] was 86.8%. For the same compound, the Activity entry in the data set on NHDF was “Non-Toxic”. The GI50 in the data set with T-24 [4] was more than 15000 nM. Also, the 50% inhibitory concentration (IC50) in data set [2] stood at 3.7 nM.

For the compound `COc1ccc2sc(C(=O)NNc3cccc([N+](=O)[O-])c3)cc2c1`, the inhibition in [1] came to 68.4%. For the same compound, the IC50 in data set [2] turned out to be 85.6 nM.

Take `COc1ccc2sc(C(=O)NC(=O)c3cc(Cl)ccc3OC)cc2c1`: in data set [8], the Selectivity Index came to 60. Also, the half-life at 0.3 µM in [5] was 10.2 min. The half-life in [7] amounted to 10 min. Take `COc1ccc2sc(C(=O)NNc3cc(Cl)cc(Cl)c3)cc2c1`: the half-life at 0.3 µM in data set [5] was 385 min. Besides, in the data set with T-24 [4], the GI50 came out at 3400 nM. Besides, the IC50 in data set [10] came out at 13.4 nM; in data set [11] it was 191 nM. For the compound `COc1ccc2sc(C(=O)NNc3ccccc3F)cc2c1`, the inhibition in [1] is 18.6%. In data set [1], `COc1ccc2sc(C(=O)N(C)N(C)c3cccc(C#N)c3)cc2c1` displayed an inhibition of 62.7%. The concentration for half-maximal inhibition (IC50) in data set [2] amounted to 32.1 nM. Regarding `COc1ccc2sc(C(=O)NNc3ccc(C)c(Cl)c3)cc2c1`, the inhibition in data set [1] was found to be 25.9%. On the same count and under the same terms, the result for `COc1ccc2sc(C(=O)NNc3ccc(Cl)cc3Cl)cc2c1` reads 30.4%; that for `COc1ccc2sc(C(=O)NNc3ccc([N+](=O)[O-])cc3)cc2c1`, 7.2%. For the compound `COc1ccc2sc(C(=O)NNc3ccccc3)cc2c1`, in [1], the inhibition is 38.1%.

For `COc1ccc2sc(C(=O)NNc3ccccc3Cl)cc2c1`, the inhibition in data set [1] was determined as 29.5%. On the same count and under the same terms, then `COc1ccc2sc(C(=O)NNc3cccc(C)c3)cc2c1`, with 29.9%. For `COc1ccc2sc(C(=O)N(C)Nc3cccc(Cl)c3)cc2c1`, the Activity result in the data set on NHDF was “Non-Toxic”. The GI50 in the data set with T-24 [4] is more than 15000 nM. As to `COc1ccc2sc(C(=O)NNc3cc(F)cc(F)c3)cc2c1`, the half-life at 0.3 µM in [5] stood at 56.9 min. Also, the Activity result in the data set on NHDF was “Non-Toxic”. Also, in the data set on T-24 [4], the GI50 turned out to be 8900 nM. Besides, the IC50 is 21.1 nM in [10] and 201 nM in data set [11].

These data come from ChEMBL document CHEMBL5346870, “Discovery of novel 5-methoxybenzothiophene hydrazides as metabolically stable Clk1 inhibitors with high potency and unprecedented Clk1 isoenzyme selectivity” (Eur J Med Chem, 2023).
